# Measured values as given in US10470987B2, “Process for stimulating hyaluronic acid synthesis” (TOMCAT INTERNATIONAL LIMITED, priority 2015, dated 2019).
# Test system: has-2 expression
# Test: has-2 expression in human skin fibroblasts by real time quantitative PCR, 6 hours incubation
# Type: cell-based
# Settings: 2 μM, vs untreated
# Description: Human skin fibroblast cells are spread in DMEM medium containing 10% of fetal bovine serum (FBS) and antibiotics (penicillin/streptomycin) and incubated until a 90% confluence is reached. The medium is removed and replaced by fresh medium comprising resveratrol (RSV) or resveratrol oligomers (OR) respectively. Table 1 below indicates the different conditions tested and concentrations used. [table] Human skin fibroblast cells are incubated for 6 hours at 37° C. under 5% CO2. The ARN extraction is made by using the ARN Omega extraction kit. 1 μg of ARN is used and retranscribed into complementary DNA using the ADNc Bio-Rad iScript™ synthesis kit followed by a real time quantitative PCR quantification. The PCR reactions have been carried out using Fast-Start™ DNA Master SYBR Green I real-time PCR kit (Roche Molecular Biochemicals). Each PCR has been carried out in a final volume of 20 μl containing 10 μl of SYBR Green mix 2× (Fast start DNA master SYBR green+Taq DNA polymerase), 2 μl of 10 μM primer mixture (finally 1 μM) and 8 μl of ADNc solution (50 ng). The primers used are described in table 2 below. [table]
compound,measurement,value
"Oc1ccc(C=Cc2cc(O)cc(O)c2)cc1 [resveratrol, 3,5,4′-trihydroxystilbene]",increase of has-2 expression by fibroblasts,18%
same,"induction of has-2 expression by fibroblasts, factor",1.18
